According to article PMC6271376 (Molecules, 2013):

What was measured:
[1] = Stability of azacitidine in rat plasma exposed to various storage conditions; conditions: for Concentration found: n = 3
Method: The selectivity was assessed by comparing the chromatograms of six different batches of blank rat plasma with the corresponding spiked rat plasma. […] The linearity was assessed by weighted (1/x^2) least-squares analysis of six different calibration curves. The LLOQ of the assay was the lowest concentration of the analyte with the recommended precision and accuracy less than 20%. The intra- and inter-day precision (the relative standard deviation, RSD) and accuracy (the relative error, RE) were determined by the analysis of low, medium, and high QC samples (n = 6) on 3 different days. The stability of the QC samples (n = 3) in three complete freeze/thaw cycles (−80 to 20 °C), long-term sample storage (−80 °C for 30 days) and on the bench top (20 °C for 2 h) was assessed. The ready-for-injection stability of the extracted samples in the autosampler rack at 4 °C for 24 h was also evaluated. The analytes were considered stable when the accuracy bias was within ± 20% of the nominal concentration.

[2] = Pharmacokinetic study in rats following intravenous administration; type: in vivo; conditions: Sprague-Dawley, rat, plasma
Method: Male SD rats weighing from 210 to 240 g were used for the PK study. All animal experiments were performed in accordance with institutional guidelines and were approved by the University Committee on Use and Care of Animals, Shenyang Pharmaceutical University. […] Serial blood samples (0.2 mL) were obtained at 0.08, 0.17, 0.25, 0.5, 0.75, 1, 1.5, 2, 3, 4, 6, 8, 10 and 12 h after intravenous administration. All samples were placed into heparinised tubes. The rat plasma samples were centrifuged at 13,000 rpm for 10 min, and the plasma supernatant was collected. THU was added to the plasma supernatant at a final concentration of 100 µM. The plasma was frozen at −80 °C until analysis.

[3] = male SD rats, 2.5 mg/kg, mean ± SD, n = 3

Compound: Nc1ncn([C@@H]2O[C@H](CO)[C@@H](O)[C@H]2O)c(=O)n1 [Azacitidine]
- Concentration found ([1]; extracted rat plasma samples, sample rack for 24 h at 4 °C, added 20 ng/mL): 23.8 ng/mL
- Concentration found ([1]; extracted rat plasma samples, sample rack for 24 h at 4 °C, added 10,000 ng/mL): 9,966.3 ng/mL
- Concentration found ([1]; rat plasma, Ambient, 2 h, added 20 ng/mL): 24.0 ng/mL
- Concentration found ([1]; rat plasma, Ambient, 2 h, added 10,000 ng/mL): 10,388.5 ng/mL
- Stability (change in azacitidine concentrations) ([1]; rat plasma, all storage conditions of Table 3): No significant changes
- Concentration found ([1]; rat plasma, three freeze–thaw cycles, added 20 ng/mL): 24.0 ng/mL
- Concentration found ([1]; rat plasma, three freeze–thaw cycles, added 10,000 ng/mL): 10,073.4 ng/mL
- Concentration found ([1]; rat plasma, −80 °C, 30 days, added 20 ng/mL): 24.0 ng/mL
- Concentration found ([1]; rat plasma, −80 °C, 30 days, added 10,000 ng/mL): 9,519.1 ng/mL
- half-life ([2]; male SD rats, single dose 2.5 mg/kg, mean ± SD, n = 3, read-out: t1/2β (elimination half-life) (converted)): 30.4 ± 11.9 min
- Vd [2, 3]: 2.07 ± 0.17 L/kg
- clearance [2, 3]: 20.9 mL/min/kg
- AUC(0-inf) ([2]; male, SD rats, single dose 2.5 mg/kg): 2000 ng·h/mL
